According to the supplement of paper PMC11208160:

Test: recombinant UMI read abundance after kanamycin selection (control-corrected) (log10(CPM+1)); higher = more efficient recombination; extreme values may be limits of the assay; sequences stand for … in AGTGCAGAGAAAATCGGCCAGTTTTCTCTGCCTGCAGTCCGCATGCCGTGGGACCCCTTGGGTTCTAACCTGTTGCCTAGATTTATGCAGCGGACTGCCTTTCTCCCAAAGTGATAAACCGG…AGGTTGGTTTCACT; site = the 11-nt donor
Method: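 Pooled E. coli donor-specificity screen for the IS621 bridge recombinase. Each library member carries a reprogrammed 11-nt donor and a full-length LE bridge RNA expressed in cis from the natural promoter, with a paired donor-binding loop (8-nt LDG + 4-nt RDG) and a target-binding loop fixed to T5. It is co-electroporated with a T5 target plasmid; recombinase is induced with 0.07 mM IPTG and recombinants are selected on kanamycin. UMIs are counted as CPM, averaged over two biological replicates and corrected by the unselected control. Molecule = full bridge RNA written as DNA, built from the T5 scaffold: LDG = donor specificity nt 1-8, RDG = reverse complement of nt 8-11.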
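Note: IS621 bridge recombinase in Escherichia coli cells against a fixed T5 target plasmid.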

Sequence | recombinant UMI read abundance (log10)
CTAGTATCATGGACCGGTTTTCCCGGTAATCCGTATTTGAC (site TTAGTATCTGA) | 0
TTAGCTGCATGGACCGGTTTTCCCGGTAATCCGTATTTGTG (site TTAGCAGCTCA) | 0.00587
CGTCGAACATGGACCGGTTTTCCCGGTAATCCGTATTTGTT (site CGTGGAACTAA) | 0
CCCCTATCATGGACCGGTTTTCCCGGTAATCCGTATTTGTC (site CCCTTATCTGA) | 0
TGCTAGGCATGGACCGGTTTTCCCGGTAATCCGTATTTGGG (site TGCTAGGCTCC) | 0.00935
CTATCATCATGGACCGGTTTTCCCGGTAATCCGTATTTGCG (site CGATCATCTAG) | 0
CATGGCCCATGGACCGGTTTTCCCGGTAATCCGTATTTGTT (site CATGGCCCTAA) | 0.00575
GTGTAGGCATGGACCGGTTTTCCCGGTAATCCGTATTTGTG (site GTGTAGGCTCA) | 1.75
ATTGAGACATGGACCGGTTTTCCCGGTAATCCGTATTTGGA (site ATTGAGACTTC) | 1
GTCTGATCATGGACCGGTTTTCCCGGTAATCCGTATTTGCG (site GTCTGATCTCG) | 2.17
ACCGTATCATGGACCGGTTTTCCCGGTAATCCGTATTTGCT (site ACAGTATCTTG) | 0
TGCCAATCATGGACCGGTTTTCCCGGTAATCCGTATTTGTG (site TGCCAATCTCA) | 0.0694
TCTGATACATGGACCGGTTTTCCCGGTAATCCGTATTTGCT (site TCTGATACTAG) | 0
CTAGTATCATGGACCGGTTTTCCCGGTAATCCGTATTTGAC (site CCAGCATCTGT) | 0.00896
ACACACCCATGGACCGGTTTTCCCGGTAATCCGTATTTGAC (site ACACAACCTGT) | 0
TGGTGACCATGGACCGGTTTTCCCGGTAATCCGTATTTGTC (site TGGTGACCTGA) | 0
ACCGTATCATGGACCGGTTTTCCCGGTAATCCGTATTTGGT (site ACCGTATCTAC) | 1.32
CAAGCCCCATGGACCGGTTTTCCCGGTAATCCGTATTTGTG (site CAAGCACCTCA) | 0.0304
CTGAACCCATGGACCGGTTTTCCCGGTAATCCGTATTTGTT (site CGGAATCCTAA) | 0.0138
AACGCCGCATGGACCGGTTTTCCCGGTAATCCGTATTTGTC (site AACGCCGCTGA) | 2.24
CCCGGTTCATGGACCGGTTTTCCCGGTAATCCGTATTTGCT (site CCCGGTTCTAG) | 0
GGTACTTCATGGACCGGTTTTCCCGGTAATCCGTATTTGTT (site GGTACTTCTAA) | 0.456
CAATTCCCATGGACCGGTTTTCCCGGTAATCCGTATTTGCT (site CAATTCTCTAG) | 2.13
CACTTGGCATGGACCGGTTTTCCCGGTAATCCGTATTTGTA (site CACTTGGCTTT) | 0.75

Sequence | recombinant UMI read abundance (log10)
CTAGTATCATGGACCGGTTTTCCCGGTAATCCGTATTTGAC (site CGAGTGTCTGT) | 0
TAACGAACATGGACCGGTTTTCCCGGTAATCCGTATTTGCG (site TAACGAACTCG) | 1.63
ATATCGGCATGGACCGGTTTTCCCGGTAATCCGTATTTGGT (site ATATCGGCTAC) | 0.889
GAGCTCACATGGACCGGTTTTCCCGGTAATCCGTATTTGAT (site GAGCTCACTAT) | 2.18
GGAAAGACATGGACCGGTTTTCCCGGTAATCCGTATTTGCC (site GGAAAGACTGG) | 1.64
CGGGAAGCATGGACCGGTTTTCCCGGTAATCCGTATTTGAT (site CGGGAACCTAT) | 0
TGAGGACCATGGACCGGTTTTCCCGGTAATCCGTATTTGGG (site AGAGGACCTCC) | 0.0068
GGCCATCCATGGACCGGTTTTCCCGGTAATCCGTATTTGTT (site GGCCAACCTAA) | 0
CGGGAACCATGGACCGGTTTTCCCGGTAATCCGTATTTGAT (site CGGGCACCTAT) | 0.021
GTGGAGGCATGGACCGGTTTTCCCGGTAATCCGTATTTGTC (site GTGGAGGCTTA) | 1.64
TCGTAGCCATGGACCGGTTTTCCCGGTAATCCGTATTTGTG (site TCGTAGCCTCA) | 0.0471
ACTGGAGCATGGACCGGTTTTCCCGGTAATCCGTATTTGCT (site ACTGGAGCTAG) | 1.86
TCCCCCGCATGGACCGGTTTTCCCGGTAATCCGTATTTGCG (site TCCGCCGCTCG) | 0.0064
ATCGAGACATGGACCGGTTTTCCCGGTAATCCGTATTTGGT (site ATTGAGACTAC) | 0.017
CGCTGTACATGGACCGGTTTTCCCGGTAATCCGTATTTGCT (site CGCGGTACTAG) | 0
GAAGATGCATGGACCGGTTTTCCCGGTAATCCGTATTTGTT (site GAAGATCCTAA) | 0.286
TACTTGTCATGGACCGGTTTTCCCGGTAATCCGTATTTGCT (site TACTTGTCTAG) | 1.51
TTAGCTGCATGGACCGGTTTTCCCGGTAATCCGTATTTGGG (site TTAGCTGCTCT) | 0
CCGTTAACATGGACCGGTTTTCCCGGTAATCCGTATTTGCT (site CCGTTGACTAG) | 0.00307
AGGACTTCATGGACCGGTTTTCCCGGTAATCCGTATTTGAC (site AGGACTACTGT) | 0
GAATGGCCATGGACCGGTTTTCCCGGTAATCCGTATTTGGA (site GAATGGCCTTA) | 0
ATGAGGACATGGACCGGTTTTCCCGGTAATCCGTATTTGCT (site ATGAGGACTAG) | 2.89
TGCGTCACATGGACCGGTTTTCCCGGTAATCCGTATTTGCC (site TGCGTCACTGG) | 1.97
TGGCTGGCATGGACCGGTTTTCCCGGTAATCCGTATTTGGC (site TGGCAGGCTGC) | 0

Sequence | recombinant UMI read abundance (log10)
CAAGCAGCATGGACCGGTTTTCCCGGTAATCCGTATTTGCT (site CAAGCCGCTAG) | 0.0579
CCAGAGACATGGACCGGTTTTCCCGGTAATCCGTATTTGCG (site TCAGAGACTCG) | 0.381
CGATAGCCATGGACCGGTTTTCCCGGTAATCCGTATTTGCT (site CGATAGCCTAG) | 1.12
CTAGTATCATGGACCGGTTTTCCCGGTAATCCGTATTTGAC (site CTAGTTTCTTT) | 0
CCCAATTCATGGACCGGTTTTCCCGGTAATCCGTATTTGCC (site GCCAATTCTGG) | 0
TACTTGACATGGACCGGTTTTCCCGGTAATCCGTATTTGCT (site TACTTGCCTAG) | 0
ATCCAAGCATGGACCGGTTTTCCCGGTAATCCGTATTTGAG (site ATCCAAGCTCG) | 0.141
CGTTGAACATGGACCGGTTTTCCCGGTAATCCGTATTTGTT (site CGTCGAACTAA) | 0.0175
GATTGGACATGGACCGGTTTTCCCGGTAATCCGTATTTGTC (site GATTGGACTGA) | 0.657
AGCATAGCATGGACCGGTTTTCCCGGTAATCCGTATTTGTT (site AGCGTAGCTAA) | 0.0357
CTGGAAACATGGACCGGTTTTCCCGGTAATCCGTATTTGCA (site CTGCAAACTTG) | 0
ACCTTCTCATGGACCGGTTTTCCCGGTAATCCGTATTTGGG (site CCCTTCTCTCC) | 0.00967
AGGGAGACATGGACCGGTTTTCCCGGTAATCCGTATTTGCC (site AGGGAGACTGG) | 1.26
GAATAGCCATGGACCGGTTTTCCCGGTAATCCGTATTTGCA (site GAATAGCCTTG) | 0.97
AGGTTCCCATGGACCGGTTTTCCCGGTAATCCGTATTTGTA (site AGGTTCCCTAA) | 0.0166
GTGGAGGCATGGACCGGTTTTCCCGGTAATCCGTATTTGTG (site GTGGACGCTCA) | 1.02
ACAGTTTCATGGACCGGTTTTCCCGGTAATCCGTATTTGTA (site ACAGTTTCTTA) | 2.49
CTTGTTCCATGGACCGGTTTTCCCGGTAATCCGTATTTGGT (site GTTGTTCCTAC) | 0.0201
CGATCGACATGGACCGGTTTTCCCGGTAATCCGTATTTGCT (site CGATCGACTAC) | 0.00923
CGTGCAACATGGACCGGTTTTCCCGGTAATCCGTATTTGTT (site CGTGTAACTAA) | 0.00375
GCGAGAACATGGACCGGTTTTCCCGGTAATCCGTATTTGCT (site GCGACAACTAG) | 0
CCTTATACATGGACCGGTTTTCCCGGTAATCCGTATTTGGC (site CCTTATACTGC) | 0
CCGTATGCATGGACCGGTTTTCCCGGTAATCCGTATTTGAA (site CCGTATGCTTT) | 1.14
GCAATATCATGGACCGGTTTTCCCGGTAATCCGTATTTGCA (site GCAATATCTTG) | 1.75
